{
  "source": "patent US20210386721A1",
  "about": "“SUBSTITUTED PHENYLPROPENYL PYRIDINE DERIVATIVES, THEIR PREPARATION AND PHARMACEUTICAL APPLICATIONS” (SHANGHAI HAIYAN PHARMACEUTICAL TECHNOLOGY CO., LTD., priority 2019, published 2021)",
  "key": {"PD-1/PD-L1": {"molecular_target": "T1, PD-1/PD-L1 (Homo sapiens, UniProt Q9NZQ7)", "T1 construct": "purchased Cisbio 63ADK000CPDPEB", "T1 sequence (Q9NZQ7 19-238 limits assumed)": "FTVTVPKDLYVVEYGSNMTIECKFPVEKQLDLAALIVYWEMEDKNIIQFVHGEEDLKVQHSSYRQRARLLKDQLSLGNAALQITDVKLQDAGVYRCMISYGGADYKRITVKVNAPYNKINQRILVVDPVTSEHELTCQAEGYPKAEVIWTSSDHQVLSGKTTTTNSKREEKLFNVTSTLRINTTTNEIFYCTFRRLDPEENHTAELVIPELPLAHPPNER", "assay": "PD-1/PD-L1 binding assay (HTRF, PPI-HTRF)", "conditions": "HTRF PD1/PD-L1 binding assay kit; 10 nM Tag1-PD-L1; 25° C.", "outline": "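HTRF binding assay: compound was mixed with tagged proteins at final concentrations of 10 nM Tag1-PD-L1 and 2 nM PD1 for 15 min at 25 °C. Anti-Tag1-Eu³⁺ and anti-Tag2-XL665 antibodies were then added for 16 h at 25 °C. IC50 was derived from the 665/620 nm emission ratio.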"}, "[1]": {"system": "Jurkat T(PD1 Luc-)/CHOK1(PDL-1)", "assay": "Jurkat T(PD1 Luc-)/CHOK1(PDL-1) cell experiment (luciferase reporter)", "type": "cell-based", "conditions": "CHO/PD-L1-OKT3 cells co-cultured with Jurkat/PD1-NFAT-Luc cells for 6 hours; Bio-Glo luciferase signal", "outline": "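CHO/PD-L1-OKT3 cells plated 24 h at 37 °C, then compound in DMSO (1 uM final) added together with Jurkat/PD1-NFAT-Luc cells and co-cultured 6 h. Luciferase signal read with Bio-Glo; EC50 by non-linear regression.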"}},
  "data": [
    {"molecule": "COc1cc(/C=C/c2ccnc(-c3cccc(Nc4nccc5cc(CN6CC[C@@H](O)C6)cnc45)c3C)c2C#N)c(C(F)(F)F)cc1CN1CC[C@@H](C(=O)O)C1", "note": "[Z-14]", "values": [
      {"measurement": "IC50", "setting": "PD-1/PD-L1", "value": "< 1", "unit": "nM"},
      {"measurement": "EC50", "setting": "[1]", "value": 208, "unit": "nM"}
    ]},
    {"molecule": "COc1cc(/C=C/c2cccc(-c3cccc(-c4ccc(CNC[C@@H]5CCC(=O)N5)c(OC)n4)c3C)c2C)c(C(F)(F)F)cc1CN1CC[C@@H](C(=O)O)C1", "note": "[Z-54, (R)-1-(2-methoxy-4-((E)-2-(3′-(6-methoxy-5-(((((S)-5-oxopyrrolidin-2-yl)methyl)amino)methyl)pyridin-2-yl)-2,2′-dimethyl-[1,1′-biphenyl]-3-yl)vinyl)-5-(trifluoromethyl)benzyl)pyrrolidine-3-carboxylic Acid]", "values": [
      {"measurement": "IC50", "setting": "PD-1/PD-L1", "value": 1, "unit": "nM"},
      {"measurement": "EC50", "setting": "[1]", "value": 149, "unit": "nM"}
    ]},
    {"molecule": "CNc1cc(C(=O)Nc2cccc(-c3cccc(/C=C/c4cc(OC)c(CN5CCC(C(=O)O)C5)cc4C(F)(F)F)c3C)c2C)ncc1CN1CC[C@@H](O)C1", "note": "(stereo partly shown) [Z-141]", "values": [
      {"measurement": "IC50", "setting": "PD-1/PD-L1", "value": "≤ 1", "unit": "nM"},
      {"measurement": "EC50", "setting": "[1]", "value": 74, "unit": "nM"}
    ]},
    {"molecule": "Cc1cc(/C=C/c2nccc(-c3cccc(NC(=O)c4ccc(CN5CC[C@@H](O)C5)cn4)c3C)c2C#N)c(C(F)(F)F)cc1CN1CC[C@@H](C(=O)O)C1", "note": "[Z-101]", "values": [
      {"measurement": "IC50", "setting": "PD-1/PD-L1", "value": 1, "unit": "nM"},
      {"measurement": "EC50", "setting": "[1]", "value": 122, "unit": "nM"}
    ]},
    {"molecule": "COc1cc(/C=C/c2cccc(-c3cccc(-c4nc5cc(CN6CC[C@H](C(=O)O)C6)cc(C#N)c5o4)c3C)c2C)c(C(F)(F)F)cc1CN1CC[C@@H](O)C1", "note": "[Z-35]", "values": [
      {"measurement": "IC50", "setting": "PD-1/PD-L1", "value": 2, "unit": "nM"},
      {"measurement": "EC50", "setting": "[1]", "value": 29, "unit": "nM"}
    ]},
    {"molecule": "COc1cc(/C=C/c2cccc(-c3cccc(Nc4nccc5cc(CN6CC[C@@H](O)C6)cnc45)c3C)c2C)c(C(F)(F)F)cc1CN1CC[C@@H](C(=O)O)C1", "note": "[Z-8]", "values": [
      {"measurement": "IC50", "setting": "PD-1/PD-L1", "value": 2, "unit": "nM"},
      {"measurement": "EC50", "setting": "[1]", "value": 47, "unit": "nM"}
    ]},
    {"molecule": "Cc1cc(/C=C/c2cccc(-c3cccc(NC(=O)c4ccc(CN5CC[C@@H](O)C5)cn4)c3C)c2C)c(Cl)cc1CN1CC[C@@H](C(=O)O)C1", "note": "[Z-86]", "values": [
      {"measurement": "IC50", "setting": "PD-1/PD-L1", "value": 1, "unit": "nM"},
      {"measurement": "EC50", "setting": "[1]", "value": 38, "unit": "nM"}
    ]},
    {"molecule": "Cc1cc(/C=C/c2nccc(-c3cccc(NC(=O)c4ccc(CN5CC[C@@H](O)C5)cn4)c3C)c2Cl)c(Cl)cc1CN1CCCC[C@H]1C(=O)O", "note": "[Z-83]", "values": [
      {"measurement": "IC50", "setting": "PD-1/PD-L1", "value": 1, "unit": "nM"},
      {"measurement": "EC50", "setting": "[1]", "value": 113, "unit": "nM"}
    ]},
    {"molecule": "COc1cc(/C=C/c2cccc(-c3cccc(-c4nc5cc(CN6CC[C@@H](C(=O)O)C6)cc(C#N)c5o4)c3C)c2C)c(C(F)(F)F)cc1CNCCO", "note": "[Z-33]", "values": [
      {"measurement": "IC50", "setting": "PD-1/PD-L1", "value": 1, "unit": "nM"},
      {"measurement": "EC50", "setting": "[1]", "value": 74, "unit": "nM"}
    ]},
    {"molecule": "COc1cc(C(=O)Nc2cccc(-c3cccc(/C=C/c4cc(OC)c(CN5CC[C@@H](C(=O)O)C5)cc4C(F)(F)F)c3Cl)c2C)ncc1CN1CC[C@@H](O)C1", "note": "[Z-140]", "values": [
      {"measurement": "IC50", "setting": "PD-1/PD-L1", "value": "≤ 1", "unit": "nM"},
      {"measurement": "EC50", "setting": "[1]", "value": 7, "unit": "nM"}
    ]},
    {"molecule": "COc1cc(/C=C/c2cccc(-c3cccc(NC(=O)c4ccc(CN5CC[C@@H](O)C5)cn4)c3C(F)(F)F)c2C#N)c(C(F)(F)F)cc1CN1CC[C@@H](C(=O)O)C1", "note": "[Z-98]", "values": [
      {"measurement": "IC50", "setting": "PD-1/PD-L1", "value": 2, "unit": "nM"},
      {"measurement": "EC50", "setting": "[1]", "value": 174, "unit": "nM"}
    ]},
    {"molecule": "COc1cc(/C=C/c2cccc(-c3cccc(NC(=O)c4ccc(CN5CC[C@@H](O)C5)cn4)c3Cl)c2F)c(C(F)(F)F)cc1CN1CC[C@@H](C(=O)O)C1", "note": "[Z-99]", "values": [
      {"measurement": "IC50", "setting": "PD-1/PD-L1", "value": "< 1", "unit": "nM"},
      {"measurement": "EC50", "setting": "[1]", "value": 35, "unit": "nM"}
    ]},
    {"molecule": "Cc1cc(/C=C/c2nccc(-c3cccc(NC(=O)c4ccc(CNCCO)cn4)c3C)c2C#N)c(Cl)cc1CNCCO", "note": "[Z-1, (E)-N-(3-(2-(2-chloro-4-(((2-hydroxyethyl)amino)methyl)-5-methylstyryl)-3-cyanopyridin-4-yl)-2-methylphenyl)-5-(((2-hydroxyethyl)amino)methyl)picolinamide]", "values": [
      {"measurement": "IC50", "setting": "PD-1/PD-L1", "value": 1, "unit": "nM"},
      {"measurement": "EC50", "setting": "[1]", "value": 162, "unit": "nM"}
    ]},
    {"molecule": "Cc1cc(/C=C/c2cccc(-c3cccc(-c4nc5cc(CN6CC[C@@H](C(=O)O)C6)cc(C#N)c5o4)c3C)c2C)c(C(F)(F)F)cc1CN1CC[C@@H](O)C1", "note": "[Z-18, (R)-1-((7-cyano-2-(3′-((E)-4-(((R)-3-hydroxypyrrolidin-1-yl)methyl)-5-methyl-2-(trifluoromethyl)styryl)-2,2′-dimethyl-[1,1′-biphenyl]-3-yl)benzo[d]oxazol-5-yl)methyl)pyrrolidine-3-carboxylic Acid]", "values": [
      {"measurement": "IC50", "setting": "PD-1/PD-L1", "value": 1, "unit": "nM"},
      {"measurement": "EC50", "setting": "[1]", "value": 142, "unit": "nM"}
    ]}
  ]
}
